Data on four molecules can be found in patent publication US20090226427A1, “NOVEL PHARMACEUTICAL COMPOSITIONS FOR MODULATING ANGIOGENESIS” (priority 1999, published 2009).

Assay [1] deals with caveolin. Description: caveolin immunoblot, AoECs. In kind it is cell-based, rat. From the text:
(§1) Therefore, the effects of statin exposure on the absolute amounts of caveolin in AoECs and CMECs was examined.

Assay [2] concerns phospho-Ser1177-eNOS. The experiment in a line: phospho-Ser1177-eNOS immunoblot, statin-exposed HUVECs.
Assay [3] has as its system caveolin. Description: caveolin immunoblot, AECs. In kind it is cell-based, Bovine.
Text: as §1

Assay [4] has as its system phospho-Akt/eNOS interaction. The experiment in a line: eNOS/phospho-Akt co-immunoprecipitation, statin-exposed HUVECs.
For assay [5], the system named is eNOS/hsp90 interaction. The experiment in a line: eNOS/hsp90 co-immunoprecipitation, statin-exposed HUVECs.
For assay [6], the system named is phospho-Akt. Description: phospho-Akt immunoblot, insulin-stimulated cardiac myocytes. Type of assay: cell-based. To be noted: neonatal mouse cardiac myocytes.
Description: (§3) Cell Culture was performed as follows: Freshly isolated human umbilical vein EC (HUVEC) were cultured to confluence in 100-mm dishes in a 2:1 mixture of M199/endothelial cell basal medium containing 10% serum; control experiments were also performed with myocytes isolated from neonatal mice as previously detailed (Feron, et al. (1998) J. Biol. Chem. 273, 30249-30254) and plated at 5×10^5 cells/ml. Serum-starved EC and myocytes were exposed for the indicated periods of time to VEGF (50 ng/ml) and insulin (12.5 milliunits/ml), respectively, in the presence or absence of various pharmacological modulators (30-60 min preincubation with 1 μg/ml geldanamycin (Invitrogen Life Technolo-gies) or 10 μM LY294002 (Sigma)).
(§4) Accordingly, neonatal mouse cardiac myocytes were exposed to insulin (a known activator of Akt in myocytes) for 5 min with or without geldanamycin and examined the phosphorylation status of Akt and eNOS. […] Myocytes show native expression of GSK-3 and were used to determine whether geldanamycin could influence the phosphorylation of this other Akt substrate.
The test system of assay [7] is phospho-eNOS. Description: phospho-eNOS immunoblot, insulin-stimulated cardiac myocytes. Type of assay: cell-based. Conditions: neonatal mouse cardiac myocytes.
Description: as §3, §4
The test system of assay [8] is phospho-GSK-3. Description: phospho-GSK-3 immunoblot, insulin-stimulated cardiac myocytes. In kind it is cell-based. To be noted: neonatal mouse cardiac myocytes.
Description: as §3, §4
Assay [9] has as its system CMECs. The experiment in a line: angiogenesis assay on Matrigel, CMECs. In kind it is cell-based, Mouse. As for the experimental part: (§2) Tube formation was observed using an inverted phase-contrast microscope (Zeiss Axiovert 25), and images were captured with a videographic system (Pixera Pro). The tube formation index was determined by measuring the length of tubes in random fields from each well using the Image J program. Statistical analyses were made using the Student t test or one-way ANOVA where appropriate.

In assay [10] the test system is HUVECs. Description: angiogenesis assay on Matrigel, HUVECs. Type of assay: cell-based, human. Conditions: HUVECs; 0.1 μmol/L. As for the experimental part: as §2
Transfection and peptide loading was performed by reversible permeabilization: HUVECs were transfected with the hsp90 cDNA (a gift from Dr W. C. Sessa, Yale University, New Haven, Conn.) using Lipofectamine (Invitrogen) according to the manufacturer's protocol; an irrelevant plasmid encoding β-galactosidase was used as a control to obtain identical amounts of transfected DNA in each condition. HUVECs were also reversibly permeabilized, as previously reported (Feron et al. J Biol. Chem. 1998; 273:30249-30254), to introduce synthetic peptides derived from the caveolin scaffolding domain (CSD).

The subject of assay [11] is phospho-Ser1177-eNOS. Description: phospho-Ser1177 eNOS immunoblot, CMECs. Type of assay: cell-based, Mouse.
Text: The modulation of eNOS phosphorylation by statins was examined using anti-phospho-Ser1177 eNOS antibodies.
Assay [12] concerns phospho-eNOS. Description: phospho-eNOS immunoblot and hsp90/eNOS interaction, AoECs. Type of assay: cell-based, rat.
Assay [13] relates to endothelial cells. Description: sandwich Matrigel model of endothelial tube formation. To be noted: non-transfected cells. In kind it is cell-based. As to the method:
Indeed, while endothelial cells culture leads to pavimentous organization when plated on dishes (FIG. 1A), endothelial cells progressively form tubes when cultured within gels of collagen, fibrin or Matrigel®. Accordingly, in the “3-D model”, endothelial cells are mixed to the matrix before gelification and tube-like structures are obtained after 48-72 hours (FIG. 1B); this model, however, reduces the efficiency of transfection. In the “sandwich model”, cells are first cultured to confluence on a first layer of matrix, and are then covered by a second matrix layer; cells are easily transfected in the interval preceding the addition of the upper layer. The latter technique allows the formation of endothelial tubes in 3-6 hours; the tube structures are mature 12 hours after induction (FIG. 1C) and then start to regress.
Of note, when endothelial cells were transfected with an irrelevant construct (β-galactosidase-encoding), no change in the rate and extent of tube formation was observed.

Assay [14] concerns caveolin/eNOS interaction. To be noted: CMECs; P>0.1, n=3.
Description: (§5) In some experiments, ECs were recovered from Matrigel after a 5-minute incubation with 50 mg/mL collagenase under constant agitation, followed by two sequences of washing/centrifugation (2000 rpm for 5 minutes at 4° C.).
In assay [15] the test system is caveolin. The experiment in a line: caveolin immunoblot, CoMECs. Conditions: microvascular outgrowing CoMECs. Type of assay: cell-based, human.
Text: as §1

Assay [16] has as its system phospho-Ser473-Akt. The experiment in a line: phospho-Ser473-Akt immunoblot, statin-exposed HUVECs. Conditions: 5-minute incubation.
Assay [17] has as its system AoECs. Description: aortic ring culture in Matrigel, AoEC network organization. In kind it is cell-based, rat. As for the experimental part:
Cultures of AoECs and CoMECs organized in a network were then challenged at day 5 by incubation under serum-free conditions for 24 to 48 hours with or without some of the drugs mentioned above. […] Tube formation was observed using an inverted phase-contrast microscope (Zeiss Axiovert 25), and images were captured with a videographic system (Pixera Pro). The tube formation index was determined by measuring the length of tubes in random fields from each well using the Image J program. Statistical analyses were made using the Student t test or one-way ANOVA where appropriate.

The test system of assay [18] is caveolin/eNOS interaction. The experiment in a line: caveolin/eNOS co-immunoprecipitation, AoECs. Type of assay: cell-based, rat.
Description: as §5
The subject of assay [19] is caveolin. The experiment in a line: caveolin immunoblot, CMECs. In kind it is cell-based, Mouse. To be noted: 3-hour exposure of CMECs.
Text: as §1

Assay [20] relates to Akt/hsp90 interaction. Description: Akt/hsp90 co-immunoprecipitation, statin-exposed HUVECs. Type of assay: cell-based, human. Conditions: 5-minute exposure.
In assay [21] the test system is hsp90. The experiment in a line: hsp90 tyrosine phosphorylation, HUVECs. In kind it is cell-based, human.
Assay [22] deals with TLT cells (hepatocarcioma). Description: TLT tumor mouse model, tumor volume. In kind it is in vivo, mice. Conditions: immunological detection of HA tag in tumor endothelial cells. The text has this:
Hepatocarcinoma cells are able to grow as a tumor after injection in the leg of mice is dependent on the ability of endothelial cells to develop new vessels to “feed” the tumor. This vessel development depends on the capacity of endothelial cells to produce NO through eNOS activation in these cells, itself regulated by the post-translational modulators it was previously identified in the in vitro experiments, e.g. caveolin-1.
Tumor mouse model: 30-40 g male NMRI mice received an IP injection of TLT cells (hepatocarcioma). Ascite cells were recovered in physiological serum and IM-injected in the posterior left leg of ketamine/xylazin anesthetized mice. Tumors grew for 9-12 days to reach 8±1 mm of diameter, the original diameter for treatment (caveolin plasmid injection) at day 0.
The effect of injection of plasmids encoding caveolin-1 has been evaluated on the volume of the growing tumor after tumor implantation in the leg (FIG. 2). Caveolin-encoding plasmids were injected either intravenously or directly in the tumor. The working hypothesis was that heterologous over-expression of caveolin-1 in endothelial cells will inhibit eNOS activation in endothelial cells, with a subsequent inhibition of angiogenesis that will result in a decrease in tumor growth.

Consider `CC(O)(CCO)CC(=O)O` (stereo not drawn) [mevalonate], for which the “effect on statin-induced reduction in caveolin abundance” value in assay [1] (AoECs, culture medium supplemented with mevalonate) is listed as “blocked the statin-induced reduction in caveolin abundance”; in [3] (AECs, culture medium supplemented with mevalonate), “blocked the statin-induced reduction in caveolin abundance”. In addition, in [2] (atorvastatin 1 μmol/L, LY294002 10 μmol/L, geldanamycin 1 μg/mL, mevalonate 1 mmol/L, BAPTA-AM 20 μmol/L, CSD peptide loading), the “effect on statin-induced phosphorylation of eNOS” value is “reverse the stimulatory effect”. For the same molecule, the “effect on phospho-Akt/eNOS interaction upon statin” value in assay [4] (co-IP) is on record as “reverse the stimulatory effect”. Also, the “effect on atorvastatin-stimulated eNOS/hsp90 interaction” value in [5] (mevalonate 1 mmol/L, BAPTA-AM 20 μmol/L, CSD peptide loading) was “reverse the stimulatory effect”.
“insulin: a known activator of Akt in myocytes”: the Akt phosphorylation entry in assay [6] was “stimulatory effect”. For the same molecule, the eNOS phosphorylation entry in assay [7] is recorded as “stimulatory effect”. The GSK-3 phosphorylation entry in [8] is recorded as “stimulatory effect”.
For the molecule `CC(C)c1c(C(=O)Nc2ccccc2)c(-c2ccccc2)c(-c2ccc(F)cc2)n1CC[C@@H](O)C[C@@H](O)CC(=O)O` [atorvastatin], the “reduction of the AoEC pool of caveolin” value in assay [1] (n=3, P<0.01) is given as 26+/−5%. Further, the “time of maximal proangiogenic effect” value in [9] (CMECs on Matrigel) amounted to 3 h. Besides, the “formation of capillary-like structures on Matrigel” value in assay [9] (freshly isolated CMECs, atorvastatin 1 _mol/L) is recorded as “rapidly led to the formation of capillary-like structures”. In addition, the tube formation entry in assay [10] is “stimulated tube formation”. Besides, the eNOS phosphorylation entry was “did not promote eNOS phosphorylation” in assay [2] (5-minute incubation) and “produced eNOS phosphorylation” in assay [2] (30 minutes exposure). Further, the “eNOS phosphorylation (Ser1177)” value in assay [11] is “did produce eNOS phosphorylation”. The “phosphorylation of eNOS” value in assay [12] (AoECs, 5-day treatment then 48-hour period in the absence of atorvastatin) was “no effect”. Besides, in [12] (uninterrupted exposure of outgrowing AoECs (or isolated AECs)), the “amounts of phospho-eNOS and hsp90/eNOS interaction” value is “significant increase”. Also, the endothelial tube formation result in assay [13] is “accelerated the endothelial tube formation”. Also, the “amount of caveolin immunoprecipitated by eNOS antibodies” value in assay [14] is given as “not significantly altered”. Moreover, the caveolin abundance result in assay [3] (isolated aortic ECs after statin treatment) was “significant decrease in caveolin abundance”. Further, the caveolin expression entry in [15] is “did not any alteration in caveolin expression”. In assay [16], the Akt phosphorylation result is “sufficient to induce Akt phosphorylation”. Also, in assay [17] (atorvastatin present during 5 to 7 days of cell growth), the “serum-driven formation of the AoEC network” value was “did not significantly influence”. Also, the “network organization after serum deprivation” value in [17] (statin pretreatment, then deprived of serum for 48 hours) is on record as “dramatically stabilized the network organization”. Besides, in [4], the “time to maximum of the Akt-hsp90-eNOS mutual interaction” value was in the range of 1 to 2 h. In addition, the “association of Akt with eNOS” value in assay [4] (5-minute exposure) is recorded as “insufficient to promote the association of Akt with eNOS”. For the same molecule, the “eNOS found in the caveolin immunoprecipitate” value in [18] (AoECs exposed to atorvastatin for 5 days, n=6, 44+/−8% without statin) is given as 8+/−5%. For the same molecule, the “change in amount of caveolin immunoprecipitated by eNOS antibodies” value in assay [18] (atorvastatin-treated AoECs, P<0.01, n=3) is given as −73+/−7%. Besides, the abundance of caveolin result in assay [19] is given as “did not alter”. Also, the “interaction of hsp90 with Akt” value in [20] is “sufficient to promote the interaction of hsp90 with both Akt and eNOS”. In addition, the “interaction of hsp90 with eNOS” value in assay [5] (5-minute exposure) was “sufficient to promote the interaction of hsp90 with both Akt and eNOS”. For the same molecule, the “tyrosine phosphorylation of hsp90” value in assay [21] is “rapidly and dose-dependently induced”.

B1: recombinant (HA-tagged-) caveolin: recombinant caveolin-1 tagged with hemagglutinin antigen, expressed from the injected plasmid (protein, UniProt Q03135 2-178, looked up)
Caveolin-1: SGGKYVDSEGHLYTVPIREQGNIYKPNNKAMADELSEKQVYDAHTKEIDLVNRDPKHLNDDVVKIDFEDVIAEPEGTHSFDGIWKASFTTFTVTKYWFYRLLSALFGIPMALIWGIYFAILSFLHIWAVVPCIKSFLIEIQCISRVYSIYVHTVCDPLFEAVGKIFSNVRINLQKEI
modifications: HA tag
notes: recombinant caveolin-1 tagged with hemagglutinin antigen, expressed from the injected plasmid
B1: the “extent of recombinant caveolin expression in relation to tumor volume” value in [22] is given as “inversely correlated to the tumor volume”.
